Data reported in patent US10047105B2, “Gyrase inhibitors” (Merck Sharp & Dohme Corp., priority 2009, dated 2018).
Values after ≈ are worked out from the molar mass of the structure shown.

Legend:
S. pneumoniae ATCC 51916 = assay: MIC, S. pneumoniae; type: cell-based; conditions: S. pneumoniae
S. aureus ATCC 13709 = assay: MIC, antibacterial potency, S. aureus; type: cell-based; conditions: S. aureus

Row | SMILES | MIC Spn52 (S. pneumoniae ATCC 51916) | MIC, SA (S. aureus ATCC 13709)
1 | CCc1[nH]c2nc(Sc3cnc4nccnc4c3)nc(N3CC(N(C)C(=O)OC(C)(C)C)C3)c2c1Cl.O=C(O)C(F)(F)F [700,601] | 2 µg/mL | ≤ 0.5 µg/mL
2 | CCc1[nH]c2nc(Sc3cnc4nccnc4c3)nc(N3CC(CN(C)C)C3)c2c1Cl.O=C(O)C(F)(F)F.O=C(O)C(F)(F)F [700,602] | 4 µg/mL | 4 µg/mL
3 | CCc1[nH]c2nc(Sc3cnc4nccnc4c3)nc(N3CC(N(C)C)C3)c2c1Cl.O=C(O)C(F)(F)F.O=C(O)C(F)(F)F [700,603] | 8 µg/mL | 4 µg/mL
4 | CCc1[nH]c2nc(Sc3cnc4nccnc4c3)nc(N3CC(N4CCCC4)C3)c2c1Cl.O=C(O)C(F)(F)F.O=C(O)C(F)(F)F [700,604] | 8 µg/mL | 4 µg/mL
5 | CCc1[nH]c2nc(Sc3cnc4nccnc4c3)nc(N3CC(N4CCCCC4)C3)c2c1Cl.O=C(O)C(F)(F)F.O=C(O)C(F)(F)F [700,605] | 8 µg/mL | 4 µg/mL
6 | CCc1[nH]c2nc(Sc3cnc4nccnc4c3)nc(N3CC(N4CCOCC4)C3)c2c1Cl.O=C(O)C(F)(F)F.O=C(O)C(F)(F)F [700,606] | 4 µg/mL | 2 µg/mL
7 | CCc1[nH]c2nc(Sc3cnc4nccnc4c3)nc(N3CC(C)(CN)C3)c2c1Cl.O=C(O)C(F)(F)F.O=C(O)C(F)(F)F [700,607] | 16 µg/mL | 8 µg/mL
8 | CCc1[nH]c2nc(Sc3cnc4nccnc4c3)nc(N3CC4C(C3)C4NC(=O)OC(C)(C)C)c2c1Cl.O=C(O)C(F)(F)F.O=C(O)C(F)(F)F (stereo not shown) [700,608] | 2 µg/mL | 1 µg/mL
9 | CCc1[nH]c2nc(Sc3ccc4nnc(C(=O)NC[C@H](C)O)nc4c3)nc(N3CC(N)C3)c2c1Cl [700,611] | 8 µg/mL (≈ 15.6 µM) | 2 µg/mL (≈ 3.89 µM)
10 | CCc1[nH]c2nc(Cl)nc(Oc3ccc4nccnc4c3)c2c1Cl [700,612] | > 64 µg/mL | > 64 µg/mL
11 | CCc1[nH]c2nc(Oc3ccc4nccnc4c3)nc(Oc3ccc4nccnc4c3)c2c1Cl [700,613] | 4 µg/mL (≈ 8.51 µM) | ≤ 0.5 µg/mL
12 | CCc1[nH]c2nc(Oc3cnc4c(cnn4C)c3)nc(Oc3cnc4c(cnn4C)c3)c2c1Cl [700,614] | 16 µg/mL (≈ 33.6 µM) | 2 µg/mL (≈ 4.2 µM)
13 | CCc1[nH]c2nc(Oc3cnc4c(cnn4C)c3)nc(Oc3cccnc3)c2c1Cl [700,615] | 4 µg/mL (≈ 9.48 µM) | ≤ 0.5 µg/mL
14 | CCc1[nH]c2nc(Sc3cnc4nccnc4c3)nc(N3CC[C@@H](N)C3)c2c1Cl [700,618] | 2 µg/mL (≈ 4.68 µM) | ≤ 0.5 µg/mL
15 | CCc1[nH]c2nc(Sc3ccc4nnc(C(=O)NCCCN5CCN(C)CC5)nc4c3)nc(N3CC[C@@H](N)C3)c2c1Cl [700,619] | 32 µg/mL (≈ 52.4 µM) | 32 µg/mL (≈ 52.4 µM)
16 | CCc1[nH]c2nc(Sc3ccc4c(N5CC(N)C5)cc(C(=O)O)nc4c3)nc(N3CC[C@@H](N)C3)c2c1Cl [700,620] | > 64 µg/mL | 32 µg/mL (≈ 59.4 µM)
17 | CCc1[nH]c2nc(Oc3cccnc3)nc(Oc3cncnc3)c2c1Br.O=C(O)C(F)(F)F [700,621] | 8 µg/mL | 4 µg/mL
18 | CCc1[nH]c2nc(Sc3cc(=O)[nH]c(=O)[nH]3)nc(N3CC4CNC4C3)c2c1Cl.O=C(O)C(F)(F)F (stereo not shown) [700,627] | 16 µg/mL | 4 µg/mL
19 | CCc1[nH]c2nc(Sc3cc(=O)n(C)c(=O)[nH]3)nc(N3CC4CNC4C3)c2c1Cl.O=C(O)C(F)(F)F (stereo not shown) [700,628] | 8 µg/mL | 2 µg/mL
20 | CCc1[nH]c2nc(Sc3cnc4nccnc4c3)nc(N3CC(C)(NC(=O)OC(C)(C)C)C3)c2c1Cl.O=C(O)C(F)(F)F [700,629] | 2 µg/mL | ≤ 0.5 µg/mL
21 | CCc1[nH]c2nc(Sc3cnc4nccnc4c3)nc(N3CC(C)(N)C3)c2c1Cl.O=C(O)C(F)(F)F.O=C(O)C(F)(F)F [700,630] | 8 µg/mL | 4 µg/mL
22 | CCc1[nH]c2nc(Oc3cncnc3)nc(Oc3cncc(OC)c3)c2c1Cl.O=C(O)C(F)(F)F [700,648] | 2 µg/mL | ≤ 0.5 µg/mL
23 | CCc1[nH]c2nc(Oc3cnc4ccoc4c3)nc(Oc3cncc(OC)c3)c2c1Cl.O=C(O)C(F)(F)F [700,649] | 2 µg/mL | ≤ 0.5 µg/mL
